Source: US7488712B2, “Histone deacetylase inhibitors and methods for producing the same” (Kyushu Institute of Technology, priority 2002, dated 2009)
pEC50: −log10 of the molar value.

Test system: human wild-type p21 promoter
Assay: p21 promoter-inducing activity (luciferase) in MFLL-9 cells
Type: cell-based
Experimental: The HDAC inhibition activity in vivo was measured using p21 promoter-inducing activity as an index, as shown below. The MFLL-9 cells employed for the experiments stably maintained fusion genes of human wild-type p21 promoter and luciferase (Dr. B. Vogelstaein). Using phenol red-free DMEM medium comprising 10% FBS, cultivation was carried out in a steam-saturated incubator at 37° C. with 5% carbon dioxide. The MFLL-9 cells were plated at a density of 85,000 cells/well on a 96-well microtiter plate, each in 99 μl of the above-mentioned medium. These were then cultivated for six hours. One μl of test compound solution was added to each well, which was then cultured for another 18 hours.
The intensity of luminescence caused by the product of the enzyme reaction for intracellular luciferase expression was measured using Luc Lite (Packard BioScience Company). A group in which test compounds were not added was used as a negative control group. The values measured for this group were used as a standard. The activities for each concentration of added test compound were expressed relative to the above-mentioned standard value, 1.

- pEC50 (Table 3, hybrid with DTT (/DTT)): 6.09
- pEC50 (Table 3, hybrid, without DTT): 5.87
Substance: cyclo(-L-Am7(S2Py)-D-Tyr(Me)-L-Ile-D-Pro-) [SCOP 401]
